Laboratory results published in patent publication US6740635B2, “Antiviral linear polymers” (Biomolecular Research Institute Ltd., priority 1996, dated 2004).
≈ marks a conversion by molar mass, not a printed value. Like-named read-outs stand apart in the source and are kept apart here.

Assays:
Flu B = assay: microbe, parasite or virus in culture; assay type: cell-based; conditions: Influenza B virus, read-out: NR = Neutral Red cell count EC50
RSV; A2 [1] = assay: RSV A2 virus yield
RSV; A2 [2] = assay: RSV A2 Neutral Red cell count; assay type: cell-based; conditions: human respiratory syncytial virus, read-out: NR = Neutral Red cell count EC50
in vitro [3] = assay: in vitro
RSV; A2 [4] = assay: RSV A2 viral count or plaque reduction; assay type: cell-based; conditions: human respiratory syncytial virus, Table 5
CMV = assay: microbe, parasite or virus in culture; assay type: cell-based; conditions: Human betaherpesvirus 5, read-out: CPE-inhibition EC50
RSV; Long = assay: RSV Long CPE-inhibition; assay type: cell-based, Respiratory Syncytial Virus
HIV 1 IIIB = assay: microbe, parasite or virus in culture; assay type: cell-based, Human Immunodeficiency Virus type 1; conditions: Human immunodeficiency virus 1, IIIB
VZV = VZV viral count or plaque reduction; assay type: cell-based, Varicella Zoster Virus; conditions: Human alphaherpesvirus 3
HSV-2 [5] = assay: HSV-2 CPE Inhibition; conditions: Human alphaherpesvirus 2, HFF, in Homo sapiens, read-out: EC50, HSV-2 CPE Inhibition
HSV-1 [6] = assay: HSV-1 Plaque Reduction; conditions: Human alphaherpesvirus 1, HFF, in Homo sapiens, read-out: EC50, HSV-1 Plaque Reduction
HSV-2 [7] = assay: HSV-2 Plaque Reduction; conditions: Human alphaherpesvirus 2, HFF, in Homo sapiens, read-out: EC50, HSV-2 Plaque Reduction
HSV-1 [8] = assay: HSV-1 CPE Inhibition; conditions: Human alphaherpesvirus 1, HFF, in Homo sapiens, read-out: EC50, HSV-1 CPE Inhibition
[9] = test system: Cytomegalovirus (Davis strain); assay: HCMV CPE Inhibition; conditions: Human betaherpesvirus 5, HFF, in Homo sapiens, read-out: EC50, HCMV CPE Inhibition
[10] = test system: Cytomegalovirus (Davis strain); assay: HCMV Plaque Reduction; conditions: Human betaherpesvirus 5, HFF, in Homo sapiens, read-out: EC50, HCMV Plaque Reduction
in vitro [11] = conditions: mouse
MCMV = MCMV Plaque Reduction; conditions: Mus musculus, MEF, read-out: EC50, MCMV Plaque Reduction

poly-L-lysyl [(8-octanamido)-5-acetamido-3,5-dideoxy-2-thio-D-glycero-α-D-galacto-2-nonulopyranosidoic acid]n [BRI 6150]
Virus Yield (CC50) (uninfected cells): > 1000 µg/mL

NC(=O)c1ncn([C@@H]2O[C@H](CO)[C@@H](O)[C@H]2O)n1 [Ribavirin]
EC50 (Flu B): 1.8 µg/mL (≈ 7.37 µM)
Virus Yield SI = CC50/EC90 (RSV; A2 [1]; RSV, A2): 12
EC50 (RSV; A2 [1]; human respiratory syncytial virus, read-out: Virus Yield EC50): 6 µg/mL (≈ 24.6 µM)
EC90 (RSV; A2 [1]; human respiratory syncytial virus, read-out: Virus Yield EC90): 6 µg/mL (≈ 24.6 µM)
EC50 (RSV; A2 [2]): 1 µg/mL (≈ 4.09 µM)
CC50 (in vitro [3]): > 100 µg/mL
CC50 (in vitro [3]; CPE-inhibition (CC50), parallel to CMV CPE-inhibition, Table 6): 118 µg/mL
CC50 (in vitro [3]; CPE-inhibition (CC50), parallel to RSV A2 CPE-inhibition): > 1000 µg/mL
CC50 (in vitro [3]; NR = Neutral Red cell count (CC50)): 40 µg/mL
CC50 (in vitro [3]; Viral count or Plaque Reduction (CC50), parallel to RSV A2 viral count, Table 5): > 1000 µg/mL
CC50 (in vitro [3]; Virus Yield (CC50), parallel to RSV A2 virus yield test): 71 µg/mL
EC50 (RSV; A2 [4]): 2 µg/mL (≈ 8.19 µM)
EC50 (CMV): 25 µg/mL (≈ 102 µM)
CPE-inhibition EC50 (RSV; Long): 7 µg/mL
EC50 (RSV; Long; human respiratory syncytial virus): 10 µg/mL (≈ 40.9 µM)

Cc1cn([C@H]2C[C@H](N=[N+]=[N-])[C@@H](CO)O2)c(=O)[nH]c1=O [AZT, Zidovudine]
EC50 (HIV 1 IIIB): 0.0001 µg/mL
EC50 (HIV 1 IIIB; read-out: CPE-inhibition EC50): 0.37 nM
CC50 (in vitro [3]; CC50, parallel to HIV 1 IIIB test, Table 1, standards): 1.17 µg/mL
CC50 (in vitro [3]; CPE-inhibition (CC50), parallel to HIV-1 IIIB test, Table 5, Concentrations μM): 4.38 µM

Nc1nc2c(ncn2COCCO)c(=O)[nH]1 [Acyclovir]
EC50 (VZV): 0.5 µg/mL (≈ 2.22 µM)
EC50 (HSV-2 [5]): 0.2 µg/mL (≈ 0.888 µM)
EC50 (HSV-1 [6]): 0.3 µg/mL (≈ 1.33 µM)
EC50 (HSV-2 [7]): 0.6 µg/mL (≈ 2.66 µM)
EC50 (HSV-1 [8]): 0.06 µg/mL (≈ 0.266 µM)

Nc1nc(O)c2ncn(COC(CO)CO)c2n1 [Ganciclovir]
EC50 [9]: 0.1 µg/mL (≈ 0.392 µM)
EC50 [10]: 0.2 µg/mL (≈ 0.784 µM)
CC50 (in vitro [11]): 0.5 µg/mL (≈ 1.96 µM)
EC50 (MCMV): 0.6 µg/mL (≈ 2.35 µM)
